Assay results from ChEMBL document CHEMBL5120855, “Potent 2,3-dihydrophthalazine-1,4-dione derivatives as dual inhibitors for mono-ADP-ribosyltransferases PARP10 and PARP15” (Eur J Med Chem, 2022).

Tests used:
[1] = molecular target: T1, Protein mono-ADP-ribosyltransferase PARP16 (Homo sapiens, UniProt Q8N5Y8); experiment: Inhibition of human PARP16
T1 sequence (Q8N5Y8 whole entry): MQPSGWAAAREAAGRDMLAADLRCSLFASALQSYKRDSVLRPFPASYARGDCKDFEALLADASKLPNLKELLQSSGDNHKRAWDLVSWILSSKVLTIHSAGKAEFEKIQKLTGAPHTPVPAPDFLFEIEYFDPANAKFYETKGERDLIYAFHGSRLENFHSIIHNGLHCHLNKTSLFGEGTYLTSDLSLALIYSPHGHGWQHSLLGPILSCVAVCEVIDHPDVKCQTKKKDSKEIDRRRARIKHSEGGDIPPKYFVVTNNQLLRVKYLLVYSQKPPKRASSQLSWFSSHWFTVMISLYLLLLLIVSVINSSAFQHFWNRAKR

[2] = molecular target: T2, Protein mono-ADP-ribosyltransferase PARP3 (Homo sapiens, UniProt Q9Y6F1); experiment: Inhibition of human PARP3
T2 sequence (Q9Y6F1 whole entry): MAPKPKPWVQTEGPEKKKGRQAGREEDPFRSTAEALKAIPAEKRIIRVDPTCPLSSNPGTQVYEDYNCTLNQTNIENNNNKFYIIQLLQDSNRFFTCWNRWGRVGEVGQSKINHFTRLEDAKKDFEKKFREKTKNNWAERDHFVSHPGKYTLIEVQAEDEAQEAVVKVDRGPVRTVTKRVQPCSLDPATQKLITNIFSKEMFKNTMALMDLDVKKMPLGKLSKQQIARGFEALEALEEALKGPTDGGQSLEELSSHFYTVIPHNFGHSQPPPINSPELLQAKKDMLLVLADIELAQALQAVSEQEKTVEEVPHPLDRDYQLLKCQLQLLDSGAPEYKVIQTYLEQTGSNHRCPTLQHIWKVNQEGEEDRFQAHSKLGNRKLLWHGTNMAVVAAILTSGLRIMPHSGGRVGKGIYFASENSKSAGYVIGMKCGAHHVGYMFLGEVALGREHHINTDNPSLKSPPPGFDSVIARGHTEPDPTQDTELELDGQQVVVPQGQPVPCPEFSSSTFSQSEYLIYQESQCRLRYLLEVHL

HEK-293T = experiment: Cytotoxicity against HEK293T cells assessed as reduction in cell viability at 10 uM measured after 24 hrs by WST-1 assay; format: toxicity, cell-based; conditions: human
[3] = molecular target: T3, Poly [ADP-ribose] polymerase tankyrase-2 (Homo sapiens, UniProt Q9H2K2); experiment: Inhibition of human N-terminal 6His-tagged TNKS2 (1030 to 1317 residues) expressed in Escherichia coli Rosetta2 (DE3) cells using NAD+ as substrate incubated for 10 mins by fluorescence based analysis
T3 sequence (Q9H2K2 whole entry): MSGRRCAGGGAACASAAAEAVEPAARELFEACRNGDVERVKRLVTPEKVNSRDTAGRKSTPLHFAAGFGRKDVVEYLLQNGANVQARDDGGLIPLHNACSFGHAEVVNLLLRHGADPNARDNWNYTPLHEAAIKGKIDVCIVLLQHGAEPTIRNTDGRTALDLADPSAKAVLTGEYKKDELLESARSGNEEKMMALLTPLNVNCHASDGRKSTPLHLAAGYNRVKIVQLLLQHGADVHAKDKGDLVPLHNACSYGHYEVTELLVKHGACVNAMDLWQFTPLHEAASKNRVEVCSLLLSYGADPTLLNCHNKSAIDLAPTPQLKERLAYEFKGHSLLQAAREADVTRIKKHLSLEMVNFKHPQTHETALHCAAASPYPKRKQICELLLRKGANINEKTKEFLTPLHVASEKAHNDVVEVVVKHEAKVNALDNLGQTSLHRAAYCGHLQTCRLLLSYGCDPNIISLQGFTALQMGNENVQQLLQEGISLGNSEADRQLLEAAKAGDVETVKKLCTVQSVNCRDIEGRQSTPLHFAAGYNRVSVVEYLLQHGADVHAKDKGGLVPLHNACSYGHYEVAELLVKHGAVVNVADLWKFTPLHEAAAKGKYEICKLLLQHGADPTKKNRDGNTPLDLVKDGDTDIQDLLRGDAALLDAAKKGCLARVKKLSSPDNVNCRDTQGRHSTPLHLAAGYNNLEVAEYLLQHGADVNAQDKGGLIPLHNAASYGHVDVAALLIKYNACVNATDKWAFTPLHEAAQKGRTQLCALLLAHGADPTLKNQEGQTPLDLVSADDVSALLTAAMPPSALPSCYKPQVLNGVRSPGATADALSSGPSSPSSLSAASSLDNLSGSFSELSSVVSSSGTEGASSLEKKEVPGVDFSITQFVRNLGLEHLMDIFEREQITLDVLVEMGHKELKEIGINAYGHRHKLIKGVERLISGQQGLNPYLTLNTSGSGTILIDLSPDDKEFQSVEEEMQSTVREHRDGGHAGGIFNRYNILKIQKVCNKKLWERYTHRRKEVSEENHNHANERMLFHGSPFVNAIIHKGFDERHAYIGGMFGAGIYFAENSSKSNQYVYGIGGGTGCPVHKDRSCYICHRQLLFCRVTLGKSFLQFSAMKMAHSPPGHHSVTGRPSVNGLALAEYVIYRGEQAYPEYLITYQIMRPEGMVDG

[4] = molecular target: Protein mono-ADP-ribosyltransferase PARP14 (Homo sapiens, UniProt Q460N5); experiment: Inhibition of human PARP14 using NAD+ as substrate incubated for 10 mins by fluorescence based analysis
Protein mono-ADP-ribosyltransferase PARP14, sequence (Q460N5 whole entry): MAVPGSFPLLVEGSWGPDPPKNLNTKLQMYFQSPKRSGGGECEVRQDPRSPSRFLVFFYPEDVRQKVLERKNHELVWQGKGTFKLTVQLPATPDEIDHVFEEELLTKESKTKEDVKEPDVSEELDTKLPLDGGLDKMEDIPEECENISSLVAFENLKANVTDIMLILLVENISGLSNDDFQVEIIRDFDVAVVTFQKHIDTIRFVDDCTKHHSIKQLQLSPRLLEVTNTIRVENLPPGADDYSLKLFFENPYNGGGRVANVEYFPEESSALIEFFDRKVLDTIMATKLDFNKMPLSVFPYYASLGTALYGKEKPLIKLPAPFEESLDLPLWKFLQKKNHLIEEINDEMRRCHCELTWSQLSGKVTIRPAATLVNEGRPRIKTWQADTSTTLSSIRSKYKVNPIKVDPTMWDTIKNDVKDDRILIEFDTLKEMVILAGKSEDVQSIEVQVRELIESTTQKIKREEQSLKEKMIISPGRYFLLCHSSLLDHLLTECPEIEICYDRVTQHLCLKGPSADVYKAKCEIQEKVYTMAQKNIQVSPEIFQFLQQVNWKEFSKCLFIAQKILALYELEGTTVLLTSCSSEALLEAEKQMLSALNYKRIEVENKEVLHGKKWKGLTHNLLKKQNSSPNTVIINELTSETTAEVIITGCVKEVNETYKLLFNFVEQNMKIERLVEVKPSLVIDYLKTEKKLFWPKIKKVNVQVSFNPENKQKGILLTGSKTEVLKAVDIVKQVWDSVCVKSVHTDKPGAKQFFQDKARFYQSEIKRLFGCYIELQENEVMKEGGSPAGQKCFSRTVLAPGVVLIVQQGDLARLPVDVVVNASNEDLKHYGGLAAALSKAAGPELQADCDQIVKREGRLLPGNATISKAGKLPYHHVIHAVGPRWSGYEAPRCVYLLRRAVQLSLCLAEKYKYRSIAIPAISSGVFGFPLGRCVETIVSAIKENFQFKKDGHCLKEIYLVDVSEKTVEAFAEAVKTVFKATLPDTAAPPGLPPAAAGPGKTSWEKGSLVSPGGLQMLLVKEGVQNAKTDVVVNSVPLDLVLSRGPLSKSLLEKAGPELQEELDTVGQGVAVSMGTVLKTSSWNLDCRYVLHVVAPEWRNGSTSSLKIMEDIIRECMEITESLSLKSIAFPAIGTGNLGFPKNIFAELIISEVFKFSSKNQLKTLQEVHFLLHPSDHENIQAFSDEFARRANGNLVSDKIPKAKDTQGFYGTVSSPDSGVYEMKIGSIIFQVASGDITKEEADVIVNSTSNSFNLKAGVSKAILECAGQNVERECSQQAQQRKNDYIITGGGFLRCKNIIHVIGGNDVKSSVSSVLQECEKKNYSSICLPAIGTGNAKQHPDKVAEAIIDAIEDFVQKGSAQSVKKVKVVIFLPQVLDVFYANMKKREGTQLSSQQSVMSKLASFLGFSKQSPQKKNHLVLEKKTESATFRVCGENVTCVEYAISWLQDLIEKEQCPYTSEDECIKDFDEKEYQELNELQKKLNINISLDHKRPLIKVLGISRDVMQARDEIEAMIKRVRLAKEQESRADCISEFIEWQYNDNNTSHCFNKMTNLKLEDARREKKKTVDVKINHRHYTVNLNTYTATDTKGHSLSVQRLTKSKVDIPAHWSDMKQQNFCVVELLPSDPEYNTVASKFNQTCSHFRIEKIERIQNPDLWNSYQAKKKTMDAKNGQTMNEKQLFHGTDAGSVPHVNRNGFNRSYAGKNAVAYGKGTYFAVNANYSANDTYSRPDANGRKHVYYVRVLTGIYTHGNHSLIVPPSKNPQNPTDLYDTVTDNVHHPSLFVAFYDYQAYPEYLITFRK

[5] = molecular target: Poly [ADP-ribose] polymerase 1 (Homo sapiens, UniProt P09874); experiment: Inhibition of human PARP-1 using NAD+ as substrate incubated for 10 mins by fluorescence based analysis
Poly [ADP-ribose] polymerase 1, sequence (P09874 whole entry): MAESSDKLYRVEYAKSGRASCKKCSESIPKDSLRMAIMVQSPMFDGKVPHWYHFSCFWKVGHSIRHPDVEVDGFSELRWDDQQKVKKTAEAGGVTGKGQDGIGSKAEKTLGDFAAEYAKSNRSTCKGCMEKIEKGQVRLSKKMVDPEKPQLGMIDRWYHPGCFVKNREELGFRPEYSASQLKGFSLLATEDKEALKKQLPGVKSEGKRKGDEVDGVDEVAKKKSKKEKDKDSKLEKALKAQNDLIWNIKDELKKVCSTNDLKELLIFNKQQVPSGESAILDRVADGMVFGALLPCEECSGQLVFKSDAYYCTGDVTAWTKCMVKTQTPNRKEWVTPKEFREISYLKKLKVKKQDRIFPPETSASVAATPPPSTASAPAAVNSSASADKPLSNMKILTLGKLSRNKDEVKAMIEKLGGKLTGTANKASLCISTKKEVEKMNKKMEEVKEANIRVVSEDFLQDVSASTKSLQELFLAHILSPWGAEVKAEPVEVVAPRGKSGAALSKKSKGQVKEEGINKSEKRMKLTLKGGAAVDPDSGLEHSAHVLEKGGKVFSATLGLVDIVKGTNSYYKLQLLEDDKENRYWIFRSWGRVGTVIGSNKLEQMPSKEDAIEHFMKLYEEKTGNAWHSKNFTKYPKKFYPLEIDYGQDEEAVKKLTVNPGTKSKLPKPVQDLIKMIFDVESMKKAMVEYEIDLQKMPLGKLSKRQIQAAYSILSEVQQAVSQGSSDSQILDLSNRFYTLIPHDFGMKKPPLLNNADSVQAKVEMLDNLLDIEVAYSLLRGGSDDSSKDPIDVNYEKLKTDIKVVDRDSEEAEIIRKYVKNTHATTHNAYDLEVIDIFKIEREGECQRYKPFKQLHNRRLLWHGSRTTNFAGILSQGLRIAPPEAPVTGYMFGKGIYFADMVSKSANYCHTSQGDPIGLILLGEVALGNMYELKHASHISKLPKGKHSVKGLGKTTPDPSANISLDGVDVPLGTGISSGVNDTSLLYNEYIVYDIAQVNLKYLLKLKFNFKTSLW

## NC(=O)c1ccc(OCC2CCC2)cc1
[1]
  IC50: > 10 µM
[2]
  IC50: > 100 µM
HEK-293T
  Activity: Non-Toxic
[3]
  IC50: > 100 µM
[4]
  IC50: > 10 µM
[5]
  IC50: > 100 µM
